This test concerns Aspergillus niger ATCC 6275. In words: Determination of synergistic antimicrobial activity in MIC (96-well microplate, optical density at 620 nm). It is filed as cell-based. Conditions: for microbial growth percentage: 32.5° C., 24 to 48 hours. The text has this:
FIC Index=(MICa with B/MICa)+(MICb with A/MICb)
with: • MICa with B: minimum concentration of product A in the combination A+B which makes it possible to obtain an inhibitory effect. • MICb with A: minimum concentration of product B in the combination A+B which makes it possible to obtain the inhibitory effect. • MICa: minimum inhibitory concentration of product A alone. • MICb: minimum inhibitory concentration of product B alone.
As regards the combinations tested, MICa with b and MICb with a are the respective concentrations of A and of B in the combinations which make it possible to obtain a microbial growth percentage of less than or equal to 25%.
When the FIC index value is less than or equal to 1, it is considered that the combination of test compounds has a synergistic effect.
The microbial strain Aspergillus niger ATCC 6275, and a double-concentration Sabouraud broth liquid culture medium supplemented with polyoxyethylenated (20 OE) sorbitan monopalmitate (Tween 40 from Croda) and Phytagel® BioReagent were used (i.e. a mixture of 5 g of Phytagel+0.6 g Tween 40+60 g of Sabouraud broth).
A 96-well microplate at an incubation temperature of 32.5° C. is used.
The incubation time of the microplate is from 24 to 48 hours aerobically.
A 10% (weight/volume) stock solution was prepared by mixing 1 g of compound in 9 ml of aqueous 1‰ agar solution. Successive dilutions were made with the 1‰ agar solution. • Test of compounds A and B alone
50 μL of each of the daughter solutions obtained containing compound A or B are added to the microplate wells. 100 μL of Sabouraud liquid nutrient broth inoculated with the strain Aspergillus niger and 50 μL of aqueous 1‰ agar solution are also added thereto. • Test of compounds A and B as a mixture
50 μL of each of the daughter solutions obtained containing compound A and 50 μL of each of the daughter solutions obtained containing compound B are added to the microplate wells. 100 μL of Sabouraud liquid nutrient broth inoculated at double concentration with the strain Aspergillus niger are also added thereto.
A positive microbial growth control was also prepared. The positive microbial growth control corresponds to a mixture of 100 μL of aqueous 1‰ agar solution with 100 μL of Sabouraud liquid nutrient broth inoculated at double concentration with the strain Aspergillus niger in the absence of compounds A and B.
An absorbance control was performed in parallel on compounds A and B alone. This control corresponds to 100 μL of double concentration sterile Sabouraud liquid nutrient broth+100 μL of double concentration compound A or B.
In the three cases (absorbance control, growth control and test), the final volume present in each of the microplate wells is 200 μL.
In the two cases (test and control), the inoculum represents the concentration of the strain Aspergillus niger present in the final volume of the wells (200 μL) and is between 2 and 6×10^5 cfu/ml of Aspergillus niger.
The minimum inhibitory concentration (MIC) of each compound A and B alone and in combination was determined in a known manner by means of optical density measurements at a wavelength of 620 nm.

[1] abbreviates: first concentration giving growth <= 25%.

Results on 2 compounds are retold here after patent US20210338550A1, “ANTIMICROBIAL MIXTURE CONTAINING 4-(3-ETHOXY-4-HYDROXYPHENYL)BUTAN-2-ONE AND CHLORPHENESIN, AND COSMETIC COMPOSITION CONTAINING SAME” (L'OREAL, priority 2017, published 2021).

On to `CCOc1cc(CCC(C)=O)ccc1O` [A, 4-(3-ethoxy-4-hydroxyphenyl)butan-2-one], for which the microbial growth percentage (0.0625 weight % A alone (0 B)) was determined as 79%, the microbial growth percentage (0.125 weight % A alone (0 B)) came to 41% and the microbial growth percentage (0.25 weight % A alone (0 B)) is on record as 5%. For the same compound, the “% MIC of A alone” value under setting [1] is reported as 0.25%.
Regarding `OCC(O)COc1ccc(Cl)cc1` (centres unmarked) [B, 3-(4-chlorophenoxy)-1,2-propanediol], the microbial growth percentage is, setting by setting: (0.0125 weight % B alone (0 A)) 71%; (0.25 weight % B alone (0 A)) 38%; (0.5 weight % B alone (0 A)) 1%. Further, the “% MIC of B alone” value under setting [1] is 0.5%.
